Laboratory results reported in paper PMC8211987, “Primaquine Diphosphate, a Known Antimalarial Drug, Blocks Vascular Leakage Acting Through Junction Stabilization” (Frontiers in Pharmacology, 2021).

Molecular target: T1, ubiquitin specific protease 1 (USP1) (Homo sapiens, UniProt O94782)
T1 construct: recombinant USP1/UAF1 complex; with UAF1
Test: Ub-AMC deubiquitinase activity assay with purified recombinant USP1/UAF1
Assay type: biochemical

T1 sequence (O94782 whole entry): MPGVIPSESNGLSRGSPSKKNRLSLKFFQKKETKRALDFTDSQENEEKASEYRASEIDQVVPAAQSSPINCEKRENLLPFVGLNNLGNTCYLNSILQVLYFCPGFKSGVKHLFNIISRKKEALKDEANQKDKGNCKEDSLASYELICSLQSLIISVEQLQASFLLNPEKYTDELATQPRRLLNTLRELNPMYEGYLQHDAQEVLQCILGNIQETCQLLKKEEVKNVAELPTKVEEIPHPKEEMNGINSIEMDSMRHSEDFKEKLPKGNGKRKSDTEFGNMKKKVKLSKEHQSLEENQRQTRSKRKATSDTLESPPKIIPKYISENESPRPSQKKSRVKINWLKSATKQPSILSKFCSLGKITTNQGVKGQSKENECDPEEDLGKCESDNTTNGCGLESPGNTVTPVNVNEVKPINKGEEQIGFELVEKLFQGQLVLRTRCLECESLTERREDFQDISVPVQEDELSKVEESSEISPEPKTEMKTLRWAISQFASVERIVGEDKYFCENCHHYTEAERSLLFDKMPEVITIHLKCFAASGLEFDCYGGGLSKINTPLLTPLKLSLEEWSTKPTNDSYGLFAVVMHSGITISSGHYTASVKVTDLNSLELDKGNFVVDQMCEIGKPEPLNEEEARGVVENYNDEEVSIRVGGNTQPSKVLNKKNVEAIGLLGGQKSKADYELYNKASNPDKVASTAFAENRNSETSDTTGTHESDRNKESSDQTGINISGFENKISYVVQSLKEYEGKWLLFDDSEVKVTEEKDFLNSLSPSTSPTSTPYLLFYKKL
T1 sequence (Q8TAF3 whole entry partner): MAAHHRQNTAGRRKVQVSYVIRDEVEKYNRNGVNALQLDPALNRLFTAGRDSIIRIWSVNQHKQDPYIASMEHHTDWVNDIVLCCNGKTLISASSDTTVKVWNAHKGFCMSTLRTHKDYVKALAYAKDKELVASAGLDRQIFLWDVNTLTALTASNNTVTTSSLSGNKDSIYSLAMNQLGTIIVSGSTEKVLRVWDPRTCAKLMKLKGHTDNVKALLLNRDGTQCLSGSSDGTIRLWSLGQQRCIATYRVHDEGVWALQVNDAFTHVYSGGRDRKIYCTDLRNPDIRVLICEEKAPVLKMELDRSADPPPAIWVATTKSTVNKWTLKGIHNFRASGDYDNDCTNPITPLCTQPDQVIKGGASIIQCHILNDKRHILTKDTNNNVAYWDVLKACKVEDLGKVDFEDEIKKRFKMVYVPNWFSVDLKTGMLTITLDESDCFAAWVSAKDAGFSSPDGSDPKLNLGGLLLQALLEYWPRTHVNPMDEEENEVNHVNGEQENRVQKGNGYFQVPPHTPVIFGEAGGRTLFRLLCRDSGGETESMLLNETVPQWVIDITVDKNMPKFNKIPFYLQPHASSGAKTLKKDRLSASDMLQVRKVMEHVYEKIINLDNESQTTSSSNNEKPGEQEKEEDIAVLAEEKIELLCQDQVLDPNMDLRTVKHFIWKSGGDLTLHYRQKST

Structure (SMILES): COc1cc(NC(C)CCCN)c2ncccc2c1 (stereo not shown) [PD, Primaquine diphosphate]
- IC50: 25.4 µM
